Tests used:
[1] = target: T1, αS seed-catalyzed aggregation (Homo sapiens, UniProt P37840); experiment: Seed-catalyzed ThT aggregation assay (10% WT αS seeds), WT αS; type: biochemical; details: equimolar ratio
T1 construct: made in house; host or cells: Escherichia coli BL21(DE3), periplasm
Experimental: Seed-catalyzed αS aggregation assay was performed similarly to a previously described protocol. Briefly, 100 μM monomeric WT αS solution (200 μL, in 1x PBS buffer) was placed into a ThermoMixer (Eppendorf, Hamberg, Germany) and shook for five days at a rate of […] and 37 °C. The solution was sonicated for 10 min and used as αS seeds. The seed-catalyzed aggregation of WT αS/ αS variants was performed by adding αS seeds (10% seeds, αS in monomeric concentration, v/v) into 140 μL of fresh 100 μM WT αS/ αS variants solution and aggregation was started with constant shaking at a rate of […] and 37 °C. The aggregation of proteins was monitored at the indicated times (See the main manuscript) using the above-mentioned method.
The ThT aggregation assay for each protein (WT αS and αS variants) in the presence of SK-129 was carried out the above-mentioned method. SK-129 (from 10 mM stock solution in DMSO) was added at an equimolar ratio (1% DMSO, v/v) to the proteins at the start of the aggregation experiment. The concentration of DMSO was kept constant (1%, v/v) in protein (WT αS and αS variants), control, and protein+molecule solutions. The kinetic profiles of protein aggregation were processed using OriginPro software (Version 9.1). Kinetic curves were fit using a built-in sigmoidal fit in the OriginLab.

[2] = target: T2, αS oligomers (Homo sapiens, UniProt P37840); experiment: Gel shift assay of αS supernatant (oligomers); type: biochemical; details: 70 µM αS, 0.1, 0.2, 0.5 mol eq. ligand, 7 days
T2 construct: made in house; host or cells: Escherichia coli BL21(DE3), periplasm
Experimental: Supplementary Fig. 8. Gel-shift images of αS (70 µM) incubated in the absence (lane 2) and presence of SK-129 (a) and EGCG (b) at sub-stoichiometric ratios (0.1, 0.2, 0.5 mol eq.) for 7 days at 370C with constant shaking. The solutions of αS in the absence and presence of ligands were centrifuged and the supernatant was used for the gel shift assay. The arrows indicate the formation of various αS structures. The gel shift assay of the supernatant of the αS aggregated […]
fibers. Most of the αS was found in the supernatant as a mo nomer and a dimer in the presence of […]
their formation. The gel experiments were conducted at least two times to confirm the reproducibility of the data.
(1 picture or pasted object on this page, not shown here)

[3] = system: HEK cells expressing αS-A53T-YFP; experiment: MTT viability of HEK cells treated with PMCA samples / PD fibrils; type: cell-based; details: for Relative cell viability (Supp. Figure 27): HEK cells, PD+SK-129
Experimental: The HEK293 cells that stably express αS-A53T-YFP and αS-YFP were grown in DMEM with 10% FBS and 1% pen/strep and cultured in an incubator at 37 °C and 5% CO2(g). A total of 60,000 cells per well in 300 µL media were plated in a µ-slide eight-well plate (Ibidi, Munich, Germany) and incubated for 24 h to adhere to the plate. […] Next, the plate was incubated for 24 h, followed by the addition of 30 µL of 1x PBS buffer containing MTT dye (in 1x PBS buffer, 5 mg/mL) to each well. The plates were wrapped in aluminum foil and incubated for 3 h. After 3 h, all liquid was aspirated carefully without disturbing the formazan crystals. To each well, 300 µL of DMSO was added to dissolve the crystals. Once dissolved, the DMSO solution was transferred to a clear 96-well plate (100 µL/well). The absorbance was read on a 96-well plate reader at 570 nm. The cytotoxicity of the HEK cells was monitored for up to 4 days.
The seeds were generated by aggregating recombinant αS (100 µM) in the absence and presence of SK-129 at an equimolar ratio under the ThT aggregation kinetic conditions for seven days. In the case of seeds from the brain, we used a PMCA sample (5th cycle) generated from the brain seeds in the absence and presence of SK-129 at an equimolar ratio.
Supplementary Fig. 27. Effect of SK-129 on the PD fibrils catalyzed aggregation of αS templated by PMCA technique. a, The representative confocal images of HEK cells after treatment with PMCA samples from the PD and control brain. The green color images are due to the intracellularly expressed αSA53T-YFP. The αSA53T-YFP inclusions, αS-pS-129, and DAPI are represented by green, red, and blue colors. The αSA53T-YFP inclusions are indicated by white arrows. b, The αSA53T-YFP inclusions, P62, and DAPI are represented by green, red, and blue colors. The αSA53T-YFP inclusions are indicated by white arrows. c, The statistical analysis of the relative viability of HEK cells treated with the indicated conditions for 24 h determined using the MTT-reduction toxicity assay. The data were expressed as mean and the error bars report the s.e.m.
(n = 4 independent cell viability experiments and each n consisted of 4 technical replicates). The statistical analysis was performed using ANOVA with Tukey’s multiple comparison test. *p<0.05, **p<0.01, ***p<0.001, ****p<0.0001. Source data are provided as a Source Data file.

effect on seed-catalyzed aggregation [1]: wholly suppressed
αS species in gel shift assay [2]: potently inhibits αS aggregation
Structure (SMILES): COC(=O)c1cc(OCC(=O)O)c2cccc(NC(=O)c3cc(OC(C)C)c4cccc(NC(=O)c5cc(OCC(=O)O)c6cccc(NC(=O)c7cc(OC(C)C)c8cccc([N+](=O)[O-])c8n7)c6n5)c4n3)c2n1 [SK-129]
Relative cell viability (Supp. Figure 27) ([3]; trial 1): 0.879
Relative cell viability (Supp. Figure 27) ([3]; trial 2): 0.798
Relative cell viability (Supp. Figure 27) ([3]; trial 3): 0.821
Relative cell viability (Supp. Figure 27) ([3]; trial 4): 0.823
Relative cell viability (Supp. Figure 27) ([3]; trial 5): 0.659
Relative cell viability (Supp. Figure 27) ([3]; trial 6): 0.702
Relative cell viability (Supp. Figure 27) ([3]; trial 7): 0.735
Relative cell viability (Supp. Figure 27) ([3]; trial 8): 0.834
Relative cell viability (Supp. Figure 27) ([3]; trial 9): 0.865
Relative cell viability (Supp. Figure 27) ([3]; trial 10): 0.808
Relative cell viability (Supp. Figure 27) ([3]; trial 11): 0.853
Relative cell viability (Supp. Figure 27) ([3]; trial 12): 0.884
Relative cell viability (Supp. Figure 27) ([3]; trial 13): 0.902
Relative cell viability (Supp. Figure 27) ([3]; trial 14): 0.783
Relative cell viability (Supp. Figure 27) ([3]; trial 15): 0.732
Relative cell viability (Supp. Figure 27) ([3]; trial 16): 0.693
cell viability of HEK cells ([3]; PD fibrils+SK-129, 24 h, MTT, PD fibrils alone 50.5 ± 5.4%): 85.6 ± 7.8%

Reference: article PMC9046208, “Foldamers reveal and validate therapeutic targets associated with toxic α-synuclein self-assembly” (Nature Communications, 2022)
